This note sets out measurements from publication PMC5831498 (Virus research, 2018).

Like-named read-outs stand apart in the source and are kept apart here. Marks after values point to notes of the source that are not given here. Bridge positions count the residues as written; N and C are the ends. Square brackets hold non-standard residues; d marks the D form. Peptide text beside a SMILES is read from it. * marks the point of attachment. Ileψ(thiazoline)Cys = CC[C@H](C)[C@H](N)C1=N[C@H](C(=O)*)CS1; dOrn = NCCC[C@@H](N)C(=O)O

Usually CC50 stands for the concentration giving 50% cytotoxicity.

Data set [1] has as its system Human influenza A virus (A/WS/33 [H1N1]). Nature of the data set: microbe, parasite or virus in culture. The note with it: for EC50: read-out: EC50 A/WS/33; for inhibition of replication of A/WS/33 (in words): MDCK cells; for SI for A/WS/33 (selectivity index): CC50/EC50, MDCK cells. The data set is classed as cell-based.
Data set [2] deals with Swine influenza A virus (A/swine/OH/511445/2007 [H1N1], Oh7). Description: microbe, parasite or virus in culture. The note with it: read-out: EC50 A/swine/OH/2007. Format: cell-based.
The subject of the next data set is MDCK cells. Description: Nonspecific cytotoxicity, CytoTox 96 assay. The note with it: 24 hr treatment, SD in parentheses. Format: cell-based, canine.
Another data set addresses PDI1 enzyme (Homo sapiens, UniProt P07237). Nature of the data set: ProteoStat PDI assay. The note with it: for PDI1 activity relative to mock: mock = 100, SD in parentheses; for effect on PDI1 activity (in words): at 10 or 50 µM. Format: biochemical.
For data set [3], the system named is influenza B virus (B/Lee/40). Description: Antiviral assay, virus titration by TCID50, MDCK cells. Format: cell-based. The note with it: for inhibition of replication of B/Lee/40 (in words): MDCK cells; for EC50: Influenza B virus, MDCK, read-out: EC50 B/Lee/40.
The next data set has as its system Group A rotavirus SA11. Nature of the data set: Rotavirus replication in MA104 cells. Format: cell-based.
The nature of data set [4]: Nonspecific cytotoxicity, CytoTox 96 assay. The data set is classed as cell-based, canine. The note with it: dog, MDCK cells.
The test system of the next data set is A/WS/33. The data set is classed as cell-based, influenza A virus.
Where [5] appears, read: Influenza A virus, H1N1, MDCK, in Sus scrofa.

Chain of PDI1 enzyme (P07237 18-508): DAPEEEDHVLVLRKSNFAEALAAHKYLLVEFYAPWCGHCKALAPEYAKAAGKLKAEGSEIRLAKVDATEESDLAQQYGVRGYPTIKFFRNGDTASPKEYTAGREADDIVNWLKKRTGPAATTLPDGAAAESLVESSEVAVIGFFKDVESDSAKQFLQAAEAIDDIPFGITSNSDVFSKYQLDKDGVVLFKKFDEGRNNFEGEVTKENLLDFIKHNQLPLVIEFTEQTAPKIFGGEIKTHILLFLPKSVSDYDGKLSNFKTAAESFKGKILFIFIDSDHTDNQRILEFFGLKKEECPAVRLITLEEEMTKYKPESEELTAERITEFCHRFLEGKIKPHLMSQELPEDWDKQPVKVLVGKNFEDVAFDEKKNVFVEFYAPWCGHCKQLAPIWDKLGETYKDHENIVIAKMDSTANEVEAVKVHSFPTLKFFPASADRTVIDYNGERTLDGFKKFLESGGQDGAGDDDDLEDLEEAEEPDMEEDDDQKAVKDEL

For the molecule `COC(=O)C1(C)c2[nH]c3ccccc3c2CCN1C(=O)CCl` (centres unmarked) [16F16], the EC50 in data set [1] worked out at 5.1 µM; in data set [2], 5.8 µM. In addition, the CC50 in the data set on MDCK cells was 15 µM. Moreover, the “PDI1 activity relative to mock” value at PDI1 enzyme (compound at 10 µM) is given as 89 (6) %; at PDI1 enzyme (compound at 50 µM), 59 (6) ^* %.
Take `C=CCNC1=C2C[C@@H](C)C[C@H](OC)[C@H](O)[C@@H](C)/C=C(\C)[C@H](OC(N)=O)[C@@H](OC)/C=C\C=C(/C)C(=O)NC(=CC1=O)C2=O` [17-AAG, 17-N-Allylamino-17-demethoxygeldanamycin]: in data set [1], the “inhibition of replication of A/WS/33 (in words)” value is “did not show any inhibitory activity” and the EC50 is more than 10 µM. In addition, in data set [3], the “inhibition of replication of B/Lee/40 (in words)” value is “did not show any inhibitory activity”. Besides, the EC50 with Group A rotavirus SA11 (read-out: EC50 rotavirus SA11 replication, MA104 cells) was less than 1 µM.
`NC12CC3CC(CC(C3)C1)C2` [Amantidine, amantadine]: the “SI for A/WS/33 (selectivity index)” value in data set [1] is given as more than 83.3. The EC50 in data set [1] (Influenza A virus, H1N1, MDCK) was 1.2 µM; in data set [2] (setting [5]) it was 1.4 µM; in data set [3], more than 100 µM. For the same molecule, the “inhibition of replication of A/WS/33 (in words)” value in data set [1] is reported as “potently inhibited”. This molecule returned a CC50 at 24 h in data set [4] of more than 100 µM. Besides, on PDI1 enzyme, the “effect on PDI1 activity (in words)” value is “little effect”. Moreover, the “PDI1 activity relative to mock” value is 102 (5) % on PDI1 enzyme (compound at 10 µM) and 103 (4) % on PDI1 enzyme (compound at 50 µM).
In the case of `CC[C@H](C)[C@H](N)C1=N[C@H](C(=O)N[C@@H](CC(C)C)C(=O)N[C@H](CCC(=O)O)C(=O)N[C@H](C(=O)N[C@H]2CCCCNC(=O)[C@H](CC(N)=O)NC(=O)[C@@H](CC(=O)O)NC(=O)[C@H](Cc3cnc[nH]3)NC(=O)[C@@H](Cc3ccccc3)NC(=O)[C@H]([C@@H](C)CC)NC(=O)[C@@H](CCCN)NC2=O)[C@@H](C)CC)CS1` [Bacitracin A, bacitracin A] ({Ileψ(thiazoline)Cys}-L[dE]IK[dOrn]I[dF]H[dD]N; lactam 4-C), the EC50 was more than 500 µM in data set [1] (Influenza A virus, H1N1, MDCK); more than 500 µM in data set [2] (setting [5]); more than 500 µM in data set [3]. Besides, the figures for the “PDI1 activity relative to mock” value on PDI1 enzyme (compound at 10 µM) and at PDI1 enzyme (compound at 50 µM) were 81 (3) ^* % and 53 (12) ^* %, respectively.
On to `CC(C)(C)N([O])C(C)(C)C` [Di-tert-butyl nitroxide (DTBN), Di-tert-butyl nitroxide], for which, in data set [1], the EC50 came to 210 µM. For the same molecule, the CC50 in the data set with MDCK cells is more than 1000 µM. Moreover, the “PDI1 activity relative to mock” value is on record as 67 (6) ^* % on PDI1 enzyme (compound at 10 µM) and 25 (9) ^* % at PDI1 enzyme (compound at 50 µM).
For the molecule `COC1=C2C[C@@H](C)C[C@H](OC)[C@H](O)[C@@H](C)/C=C(\C)[C@H](OC(N)=O)[C@@H](OC)/C=C\C=C(/C)C(=O)NC(=CC1=O)C2=O` [GDA, geldanamycin], the EC50 is more than 10 µM in data set [1] (Influenza A virus, H1N1, MDCK); more than 10 µM in data set [2] (setting [5]); more than 10 µM in data set [3]; less than 1 µM in the data set with Group A rotavirus SA11 (Rotavirus A, MA104, read-out: EC50 rotavirus SA11 replication). Further, the “inhibition of replication of A/WS/33 (in words)” value in data set [1] was “did not show any inhibitory activity”. For the same molecule, in data set [3], the “inhibition of replication of B/Lee/40 (in words)” value is “did not show any inhibitory activity”. Moreover, on PDI1 enzyme, the “effect on PDI1 activity (in words)” value is on record as “little effect”. Besides, the “PDI1 activity relative to mock” value is 102 (5) % on PDI1 enzyme (compound at 10 µM) and 96 (2) % on PDI1 enzyme (compound at 50 µM).
With `O=c1c(O[C@@H]2O[C@H](CO)[C@@H](O)[C@H](O)[C@H]2O)c(-c2ccc(O)c(O)c2)oc2cc(O)cc(O)c12` [Isoquercetin (IQ), isoquercetin], the “SI for A/WS/33 (selectivity index)” value in data set [1] was 90. Besides, the EC50 in data set [1] (Influenza A virus, H1N1, MDCK) turned out to be 0.5 µM; in data set [2] (setting [5]), 1.2 µM; in data set [3] it was 1.2 µM. In addition, the CC50 at 24 h in data set [4] came out at 45.5 µM. The “PDI1 activity relative to mock” value at PDI1 enzyme (compound at 10 µM) is recorded as 32 (5) ^* %; at PDI1 enzyme (compound at 50 µM), 13 (8) ^* %.
As for `C/C1=C/[C@H](O)C(C)(C)CCC/C(C)=C/C[C@H]1OC(=O)c1ccc(O)cc1` [Juniferdin, juniferdin], the “SI for A/WS/33 (selectivity index)” value in data set [1] amounted to 8.8. The EC50 in data set [1] (Influenza A virus, H1N1, MDCK) came out at 1.5 µM; in data set [2] (setting [5]), 1.8 µM; in data set [3], 3.1 µM. This molecule returned a cytotoxic concentration (CC50) at 24 h in data set [4] of 13.2 µM. In addition, the “PDI1 activity relative to mock” value at PDI1 enzyme (compound at 10 µM) is recorded as 41 (5) ^* %; at PDI1 enzyme (compound at 50 µM) it was 6 (4) ^* %. Further, the “reduction of viral proteins (NP or M1), Western blot” value in the data set with A/WS/33 is reported as “dose-dependent”.
With `CC(=O)Oc1ccccc1C(=O)Nc1ncc([N+](=O)[O-])s1` [NTZ, nitazoxanide], in data set [1], the “SI for A/WS/33 (selectivity index)” value was found to be 16. Moreover, the EC50 is 0.8 µM in data set [1] (Influenza A virus, H1N1, MDCK); 1.3 µM in data set [2] (setting [5]); 1.5 µM in data set [3]. Besides, in data set [4], the CC50 at 24 h was 12.8 µM. The “PDI1 activity relative to mock” value at PDI1 enzyme (compound at 10 µM) is on record as 81 (2) ^* %; at PDI1 enzyme (compound at 50 µM) it was 65 (4) ^* %.
For `CCOC(=O)C1=C[C@@H](OC(CC)CC)[C@H](NC(C)=O)[C@@H](N)C1` [Oseltamivir, oseltamivir phosphate], in data set [1], the “SI for A/WS/33 (selectivity index)” value is listed as more than 660. Moreover, the EC50 in data set [1] (Influenza A virus, H1N1, MDCK) amounted to 0.15 µM; in data set [2] (setting [5]) it was 0.5 µM; in data set [3], 1.1 µM. Moreover, in data set [1], the “inhibition of replication of A/WS/33 (in words)” value is “potently inhibited”. The “inhibition of replication of B/Lee/40 (in words)” value in data set [3] is reported as “potently inhibited”. In data set [4], this molecule had a CC50 at 24 h of more than 100 µM. Besides, at PDI1 enzyme, the “effect on PDI1 activity (in words)” value is on record as “little effect”. The “PDI1 activity relative to mock” value is 103 (6) % at PDI1 enzyme (compound at 10 µM) and 95 (5) % on PDI1 enzyme (compound at 50 µM).
With “Epigallocatechin 3-gallate [Epigallocatechin 3-gallate (EGCG)]”, the EC50 in data set [1] is 4.5 µM. In the data set with MDCK cells, the 50% cytotoxic concentration (CC50) turned out to be 35.4 µM. Further, the “PDI1 activity relative to mock” value on PDI1 enzyme (compound at 10 µM) is given as 68 (7) ^* %; on PDI1 enzyme (compound at 50 µM), 28 (5) ^* %.
For PACMA31, the EC50 in data set [1] came out at 6.1 µM. The CC50 with MDCK cells is 12.5 µM. For the same molecule, the figures for the “PDI1 activity relative to mock” value at PDI1 enzyme (compound at 10 µM) and on PDI1 enzyme (compound at 50 µM) were 91 (3) % and 71 (9) ^* %, respectively. In addition, the “reduction of viral proteins (NP or M1), Western blot” value in the data set on A/WS/33 is listed as “dose-dependent”.
